# Measured values as given in patent publication US3953449A, “2-(4-M-CF3 or -SCF3 phenylpiperazino)-ethyl benzoates” (priority 1973, dated 1976).
# Where two headings read alike, the source gives them in different places.
# Columns and labels:
# [1] = Acute toxicity, 50% lethal dose (LD50), oral administration, mice; settings: mouse, in vivo, Swiss mice of the CDl strain, both sexes, calculated graphically
# Description: The tests were carried out on Swiss mice of the CDl strain, of both sexes, and the 50% lethal doses (LD50) were calculated graphically.
# [2] = test system: pain induced in CDl mice by the intraperitoneal injection of acetic acid; experiment: Koster test: analgesic effect against pain induced by intraperitoneal injection of acetic acid, oral administration; type: in vivo; settings: Mus musculus, read-out: Analgesic activity, Koster test ED50 (50% effective dose)
# From the text: The analgesic effect was investigated in accordance with two conventional experimental procedures.
# [3] = oral administration, CDl mice, acetic acid i.p.
Structure (SMILES),LD50 [1] [mg/kg],"ED50 [2, 3] [mg/kg]",ED50 ([2]; po) [mg/kg]
"CCCC(CCC)C(=O)OCCN1CCN(c2cccc(C(F)(F)F)c2)CC1 [SLB 198, 2-(4-m-Trifluoromethylphenyl-piperazino)-ethyl 2-n-propyl-pentanoate]",2200,4.3,
"CC(=O)OCCN1CCN(c2cccc(C(F)(F)F)c2)CC1 [SLB 093, 2-(4-m-Trifluoromethylphenylpiperazino)-ethyl acetate]",925,3.5,
"O=C(OCCN1CCN(c2cccc(C(F)(F)F)c2)CC1)c1ccccc1 [SLB 108, 2-(4-m-Trifluoromethylphenylpiperazino)-ethyl benzoate]",> 4000,,10
"Cc1c(N(C)C)c(=O)n(-c2ccccc2)n1C [Amidopyrine, reference compound]",,40,
"COc1cc(C(=O)OCCN2CCN(c3cccc(C(F)(F)F)c3)CC2)cc(OC)c1OC [SLB 169, 2-(4-m-Trifluoromethylphenylpiperazino)-ethyl 3,4,5-trimethoxybenzoate]",2200,15,
